Measurements taken from US20030022820A1, “IN VIVO ACTIVATION OF TUMOR-SPECIFIC CYTOTOXIC T CELLS” (priority 1995, published 2003).
Several values for one entry are separate records, joined by “and”; a condition that tells them apart may be missing. Equal entries are not always repeated. Where two headings read alike, the source gives them in different places.

Columns and labels:
[1] = test system: A2.1/K^b-Tg mice; test: Peptide priming of A2.1/K^b-Tg mice, lytic activity of peptide-specific CTL; format: in vivo
[2] = target: HLA-A2.1 (Homo sapiens, UniProt P04439, D140Y/D185E/D98H/E176V/E277Q/G131W/G231S/I119V/I121R/I166T/I218V/L300P/L318F/N151K/N90K/P208A/P217A/Q86G/Q94H/R138H/R169H/T345S); test: Competition assay for peptide binding to HLA-A2.1 (inhibition of A clone 12 lysis of M1-pulsed EA2 targets)
[3] = test system: A2.1/K^b×CD8 or A2.1 transgenic (Tg) mice; test: Immunization of transgenic mice with Her-2/neu peptides, cytotoxicity against peptide-pulsed T2-A2.1/K^b; format: in vivo; details: A2.1/K^b×CD8 or A2.1 Tg mice
Procedure: A2.1/K^b×CD8 and/or A2.1 transgenic mice were immunized with each of the peptides listed in Table 6 to determine if they could stimulate A2.1-restricted CTL. Mice were immunized with a mixture of 100 mg of the Her-2/neu peptide with 120 mg “helper” peptide in 100 ml Incomplete Freund's Adjuvant (IFA).
A2.1/K^b×CD8 or A2.1 lipopolysaccharide (LPS) -blasts were prepared as stimulators for in vitro restimulation of spleen cells from immunized mice. These were prepared by incubating splenocytes from A2/K^b or A2.1 mice in complete RPMI containing 25 mg/ml LPS and 7 mg/ml dextran sulfate at 1.5×10^6 cells/ml in a total volume of 30 ml for 3 days. […] Six days following in vitro restimulation, the CTL populations were assayed for lytic activity against T2-A2/K^b target cells preincubated with the peptide used for stimulation (15 mM). The resultant Her-2/neu peptide-specific CTL populations were maintained in vitro by weekly restimulation. […]
Spleen cells from injected animals were restimulated in vitro with irradiated syngeneic cells pulsed with the peptide used for in vivo priming. Immunogenicity was evaluated by assaying these cultured cells for cytotoxicity against T2-A2.1/K^b target cells pulsed with the priming peptide. […]

[4] = test system: CASKI; test: Cytotoxicity assay, lysis of human tumors by H3 and H7 specific CTL; format: cell-based
Procedure: (§1) […] target cells were incubated at 37° C. with […] of sodium ^51Cr chromate for 90 minutes in the presence or absence of specific peptide. Cells were washed three times and resuspended in 5% RPMI. For the assay, […] ^51Cr-labeled target cells were incubated with different concentrations of effector cells in a final volume of […] in U-bottomed 96-well plates. Supernatants were removed after 4-7 hrs at 37° C., and the percent specific lysis was determined by the following formula: [formula]
(§2) Tumor cells were preincubated for 24 hours prior to the assay in media supplemented with γ-interferon (γ-IFN, 20 ng/ml) plus tumor necrosis factor-α (TNF-α, 3 ng/ml). It is known that such pretreatment of tumor cells increases the expression of MHC I and adhesion molecules such as ICAM I on the surface of the cell thus enhancing their sensitivity to lysis by CTL. (See, e.g., Fisk, et al., Lympho. & Cytokine Res. 13: 125-131 (1994); Fady, et al., Cancer Immunol. Immunother. 37: 329-336 (1993).)

[5] = test system: LG-2; test: as above; format: cell-based
Procedure: as §1, §2

[6] = test system: OVCAR-5; test: as above; format: cell-based
Procedure: as §1, §2

[7] = test system: SAOS.175; test: as above; format: cell-based
Procedure: as §1, §2

[8] = test system: SKMEL-5; test: as above; format: cell-based
Procedure: as §1, §2

[9] = test system: ST486; test: as above; format: cell-based
Procedure: as §1, §2

[10] = test system: SV80; test: as above; format: cell-based
Procedure: as §1, §2

[11] = test system: T98G; test: as above; format: cell-based
Procedure: as §1, §2

[12] = test system: U2-OS; test: as above; format: cell-based
Procedure: as §1, §2

[13] = test system: JY; test: as above; format: cell-based; set-up: scale not given here
Procedure: as §1, §2

[14] = test system: MALME-3M; test: as above; format: cell-based; set-up: scale not given here
Procedure: as §1, §2

[15] = test system: MDA.MB435; test: as above; format: cell-based; set-up: scale not given here
Procedure: as §1, §2

[16] = E:T 60:1, T2A2/K^b targets pulsed with two mg of peptide, highest of at least three individual mice
[17] = peptide-priming of A2.1/K^b-Tg mice

Sequence: AAPPVAPA [hu-wt-p53: 69-76]
- Lytic Activity by Peptide-Specific CTL After Priming of A2.1/K^b-Tg Mice [Specific 51Cr release (%)] ([1]; mouse, in vivo): 0%

Sequence: AAPPVAPAPA [hu-wt-p53: 69-78]
- Lytic Activity by Peptide-Specific CTL After Priming of A2.1/K^b-Tg Mice [Specific 51Cr release (%)] [1, 16]: 0%

Sequence: AAPPVAPAPAA [hu-wt-p53: 69-79]
- Lytic Activity by Peptide-Specific CTL After Priming of A2.1/K^b-Tg Mice [Specific 51Cr release (%)] [1, 16]: 0%

Sequence: AAPTPAAPA [hu-wt-p53: 78-86]
- Lytic Activity by Peptide-Specific CTL After Priming of A2.1/K^b-Tg Mice [Specific 51Cr release (%)] [1, 16]: 0%

Sequence: ASNENMETM [Flu NP 1934: 366-374, reference compound]
- (%) [inhibition of A2.1-binding of M1 (58-66)] [2]: 4%

Sequence: DLMLSPDDI [hu-wt-p53: 42-50]
- Lytic Activity by Peptide-Specific CTL After Priming of A2.1/K^b-Tg Mice [Specific 51Cr release (%)] [1, 16]: 0%

Sequence: GLAPPQHLI [hu-wt-p53: 187-195]
- A2.1-binding activity / affinity, in words [2]: high
- Lytic Activity by Peptide-Specific CTL After Priming of A2.1/K^b-Tg Mice [Specific 51Cr release (%)] [1, 16]: 1%
- A2.1/K^b-restricted peptide-specific CTL response, in words [1, 17]: lack of CTL responsiveness

Sequence: IISAVVGIL [Peptide H11]
- ability to stimulate a CTL response in Tg mice, in words [3]: could not elicit a response

Sequence: ILKEPVHGV [HIV-1 RT: 476-484, reference compound]
- (%) [inhibition of A2.1-binding of M1 (58-66)] [2]: 72%
- A2.1/K^b-restricted peptide-specific CTL response, in words ([1]; mouse, in vivo): could mount an A2.1/K^b-restricted CTL response
- Lytic Activity by Peptide-Specific CTL After Priming of A2.1/K^b-Tg Mice [Specific 51Cr release (%)] ([1]; mouse, in vivo): 85%

Sequence: ITLEDSSGNL [hu-wt-p53: 255-264]
- A2.1-binding activity / affinity, in words [2]: intermediate
- Lytic Activity by Peptide-Specific CTL After Priming of A2.1/K^b-Tg Mice [Specific 51Cr release (%)] [1, 16]: 3%
- A2.1/K^b-restricted peptide-specific CTL response, in words [1, 17]: lack of CTL responsiveness

Sequence: KLVGKLNWA [HIV-9K, reference compound]
- Killing of Tumors Expressing Her-2/neu [4]: 8 and 11
- Killing of Tumors Expressing Her-2/neu [5]: 1
- Killing of Tumors Expressing Her-2/neu [6]: 10 and 12
- Killing of Tumors Expressing Her-2/neu [7]: 18 and 11
- Killing of Tumors Expressing Her-2/neu [8]: 5 and 4
- Killing of Tumors Expressing Her-2/neu [9]: 1
- Killing of Tumors Expressing Her-2/neu [10]: 2
- Killing of Tumors Expressing Her-2/neu [11]: 9 and 13
- Killing of Tumors Expressing Her-2/neu [12]: 18 and 24
- Killing of Tumors Expressing Her-2/neu [13]: 2 and 1
- Killing of Tumors Expressing Her-2/neu [14]: 2 and 1
- Killing of Tumors Expressing Her-2/neu [15]: 4 and 3

Sequence: LLGRDSFEV [mur-wt-p53: 261-269]
- A2.1-binding activity / affinity, in words ([2]; competition with M1 (58-66)): highest A2.1-binding activity of all p53 peptides tested
- Lytic Activity by Peptide-Specific CTL After Priming of A2.1/K^b-Tg Mice [Specific 51Cr release (%)] [1, 16]: 10%
- A2.1/K^b-restricted peptide-specific CTL response, in words [1, 17]: No significant response

Sequence: LLPENNVLS [hu-wt-p53: 25-33]
- Lytic Activity by Peptide-Specific CTL After Priming of A2.1/K^b-Tg Mice [Specific 51Cr release (%)] [1, 16]: 3%

Sequence: LLPENNVLSPL [hu-wt-p53: 25-35]
- A2.1-binding activity / affinity, in words [2]: high affinity
- Lytic Activity by Peptide-Specific CTL After Priming of A2.1/K^b-Tg Mice [Specific 51Cr release (%)] [1, 16]: 47%
- A2.1/K^b-restricted peptide-specific CTL response, in words [1, 17]: detectable

Sequence: LMLSPDDIEQ [hu-wt-p53: 43-52]
- Lytic Activity by Peptide-Specific CTL After Priming of A2.1/K^b-Tg Mice [Specific 51Cr release (%)] [1, 16]: 3%

Sequence: NLLGRNSFEV [hu-wt-p53: 263-272]
- Lytic Activity by Peptide-Specific CTL After Priming of A2.1/K^b-Tg Mice [Specific 51Cr release (%)] [1, 16]: 3%

Sequence: NTFRHSVVV [hu-wt-p53: 210-218]
- Lytic Activity by Peptide-Specific CTL After Priming of A2.1/K^b-Tg Mice [Specific 51Cr release (%)] [1, 16]: 6%

Sequence: PLDGEYFTL [hu-wt-p53: 322-330]
- A2.1-binding activity / affinity, in words [2]: intermediate
- Lytic Activity by Peptide-Specific CTL After Priming of A2.1/K^b-Tg Mice [Specific 51Cr release (%)] [1, 16]: 0%
- A2.1/K^b-restricted peptide-specific CTL response, in words [1, 17]: lack of CTL responsiveness

Sequence: RGYVYQGL [VSV-N: 52-59, reference compound]
- (%) [inhibition of A2.1-binding of M1 (58-66)] [2]: 4%

Sequence: RMPEAAPPV [hu-wt-p53: 65-73]
- A2.1-binding activity / affinity, in words [2]: high affinity
- Lytic Activity by Peptide-Specific CTL After Priming of A2.1/K^b-Tg Mice [Specific 51Cr release (%)] [1, 16]: 85%
- A2.1/K^b-restricted peptide-specific CTL response, in words [1, 17]: detectable

Sequence: STPPPGTRV [hu-wt-p53: 149-157]
- A2.1-binding activity / affinity, in words [2]: intermediate affinity
- A2.1/K^b-restricted peptide-specific CTL response, in words ([1]; mouse, in vivo): detectable
- Lytic Activity by Peptide-Specific CTL After Priming of A2.1/K^b-Tg Mice [Specific 51Cr release (%)] ([1]; mouse, in vivo): 91%

Sequence: VAPAPAAPT [hu-wt-p53: 73-81]
- Lytic Activity by Peptide-Specific CTL After Priming of A2.1/K^b-Tg Mice [Specific 51Cr release (%)] [1, 16]: 0%

Sequence: VLSPLPSQA [hu-wt-p53: 31-39]
- Lytic Activity by Peptide-Specific CTL After Priming of A2.1/K^b-Tg Mice [Specific 51Cr release (%)] [1, 16]: 3%

Sequence: VLSPLPSQAM [hu-wt-p53: 31-40]
- Lytic Activity by Peptide-Specific CTL After Priming of A2.1/K^b-Tg Mice [Specific 51Cr release (%)] [1, 16]: 0%
